Results reported in US20090319044A1, “Methods and Compositions for Improving the Incorporation of Orthopaedic and Orthodontic Implants” (priority 2006, published 2009).

Tests used:
[1] = system: polyethylene particle-induced osteolysis rodent femur model; experiment: Second in vivo study: micro-CT periprosthetic bone area; parameters: species or system Sprague-Dawley rats; conditions: HA-coated UHMWPE nail soaked in 50 μM zoledronate; right femora; times pooled; p<0.0001 vs control
Source text: (§1) Experimental Design and Surgical Procedure. In this example, a polyethylene particle-induced osteolysis rodent femur model was used to examine the advantages of using a HA-zoledronate composite on the implant surface for osseous integration and implant stability in the presence of UHMWPE particles. Two critical parameters were examined, namely, peri-implant bone quality (osteolysis) and osseointegration (implant stability).
The 32 rats were divided into two study groups, each composed of 16 rats. Sixteen randomly selected rats served as a control group, which received HA-coated nails. […] Eight rats in each group were sacrificed at 6 weeks following the intramedullary nailing of HA-coated implants and another 8 rats from each group were sacrificed 6 months following the surgery. […]
(§2) In the control group, a radiolucent UHMWPE intramedullary nail, which was coated with HA, was implanted into the right distal femur in a retrograde manner, while a HA-coated titanium intramedullary nail was implanted into the left distal femur. […] Activity level, food intake, the condition of the surgical wound, and clinical signs of infection were monitored daily. […]
Micro-computed Tomography (micro-CT). The right femura with UHMWPE pins were imaged using a quantitative CT (Stratec XCT-3000), running the XCT Series software, version 5.21 (Stratec Medizintechnik GmbH, Pforzheim, Germany). […]

[2] = system: RAW 264.7 mouse macrophage-like cells (osteoclast precursors); experiment: Cell death assay (annexin V-FITC / propidium iodide flow cytometry); format: cell-based; conditions: 50 μM zoledronate, 24 hours
Procedure: MC3T3 cells, which are well-established mouse calvarial cells of osteoblastic lineage, and RAW 264.7 mouse macrophage-like cells, which are well-known to form osteoclasts, were purchased from the American Type Culture Collection and Tissue (Manassas, Va.). MC3T3 and RAW 264.7 cells were grown in Dulbecco's Modified Eagle Medium supplemented with 10% fetal bovine serum, 100 μ/mL penicillin, […] streptomycin, and 0.1% fungizone (amphotericin B). The cells were kept at 37° C. in a humidified atmosphere of 5% CO2 and 95% air.
Cell number was measured, and the cells were centrifuged and resuspended in binding buffer (A.G. Scientific, San Diego, Calif.) to a final cell density of 5×10^5 cells/mL. […] of annexin V-FITC (A.G. Scientific, San Diego, Calif.) was added to […] of cell suspension and incubated for 10 minutes. The cells were centrifuged, washed with PBS and resuspended again in […] of binding buffer. […] of 20 mg/mL propidium iodide (A.G. Scientific, San Diego, Calif.) was added to the cell suspension, and flow cytometry was performed using a FACS Calibur (Becton Dickson, Franklin Lakes, N.J.). Monoparametric cytograms of annexin V-FITC fluorescence (FL1) versus number of events were created using the CellQuest program gating for living cells and excluding dead cells on the basis of their propidium iodide uptake.

[3] = system: rodent osteolysis model (UHMWPE wear debris, femur); experiment: First in vivo study: Faxitron and micro-CT imaging of osteolysis around implants; parameters: species or system rat; conditions: 24 weeks, vs HA-coated control
Source text: (§3) More particularly, sterile ultrahigh molecular weight polyethylene (UHMWPE) wear debris particles (0.5 cc, 0.1-3 micron particle size) were introduced into the intramedullary cavity of bilateral femurs of 8 rats, which served as the control group in this example. The particles were introduced after reaming the femurs with an 18 gauge needle at the knee joint. Sterile wear debris particles were used in this example to stimulate a wear debris reaction and promote osteolysis. Hydroxyapatite-coated plastic pins and hydroxyapatite-coated titanium pins (1.5 mm×20 mm, Stryker, Kalamazoo, Mich.) were then inserted into the intramedullary canal of the right femur and left femur, respectively.
(§4) The test group, which consisted of 8 rates, also had 0.5 cc of sterile UHMWPE wear debris particles introduced into the femoral intramedullary canal after reaming with an 18 gauge needle at the knee joint.
The rats of the test and control groups were sacrificed at 24 weeks following insertion of the pins and the femurs were retrieved. Faxitron radiographs (Faxitron, Wheeling, Ill.) of the femurs taken from the test and control rats were obtained. […] The femurs with plastic pin implants (the right femurs) were imaged by micro-CT (Stratec XCT-3000, Stratec Medizintechnik GmbH, Pforzheim, Germany).

[4] = system: polyethylene particle-induced osteolysis rodent femur model; experiment: Second in vivo study: biomechanical pull-out testing; parameters: species or system Sprague-Dawley rats
Source text: as §1
(§5) The 32 rats were divided into two study groups, each composed of 16 rats. Sixteen randomly selected rats served as a control group, which received HA-coated nails. […] Eight rats in each group were sacrificed at 6 weeks following the intramedullary nailing of HA-coated implants and another 8 rats from each group were sacrificed 6 months following the surgery.
After induction of general anesthesia using ketamine (60 mg/kg) and xylazine (5 mg/kg), hair over the knee was removed with a clipper. Right and left knee regions were prepared with 70% alcohol and 1% Betadine solution. A one centimeter longitudinal skin incision was made over the anterior aspect of the distal femur. A medial parapatellar approach was made to expose the intercondylar notch with the knee in flexion. An entry hole was made with a 18-gauge needle. The distal rat femora were reamed with an 18-gauge needle, and then Ceridust® UHMWPE particles (0.1 mL of 50 vol. %; 0.1 to 3 micron in size; Clariant GmbH, Germany) were introduced into the intradmedullary canal prior to implantation.
In the control group, a radiolucent UHMWPE intramedullary nail, which was coated with HA, was implanted into the right distal femur in a retrograde manner, while a HA-coated titanium intramedullary nail was implanted into the left distal femur. The joint capsule was repaired using a 2-0 Vicryl® suture (Johnson & Johnson, New Brunswick, N.J.). The skin was repaired with metal staples. Rats were allowed weight bearing as tolerated in their cages, while subcutaneous injections of buprenorphine (0.05 mg/kg) were given once a day for two post-operative days. Activity level, food intake, the condition of the surgical wound, and clinical signs of infection were monitored daily.
The purpose of using the UHMWPE nail was to minimize imaging artifacts inherent in metal implants for a more accurate analysis of dual energy x-ray absorptiometry (DXA) and microcomputed tomography (micro-CT) analyses, which are describe below. The metallic nail was used for biomechanical testing. The intramedullary nails, 1.4 mm in diameter and 20 mm in length, were custom-made for this study (Stryker, Mahwah, N.J.).
Biomechanical Testing. The left femora of both the 6-week and 6-month control and treatment groups were subjected to biomechanical testing following the imaging studies described herein. […]

[5] = system: polyethylene particle-induced osteolysis rodent femur model; experiment: Second in vivo study: dual energy X-ray absorptiometry (DXA); parameters: species or system Sprague-Dawley rats; bone area (DXA): unit not given here; conditions: HA-coated nail soaked in 50 μM zoledronate, 6 weeks and 6 months pooled
Source text: as §1
All procedures involving animals were approved by the Institutional Animal Care and Use Committee in accordance with the Association for the Assessment and Accreditation of Laboratory Animal Care guidelines (Columbia University Animal Proctocol AC-AAM5306). In this example, a rodent femur intramedullary nailing model was used with UHMWPE wear debris particles instilled into the intramedullary canal after reaming the femur to stimulate a wear debris reaction. Thirty-two six-month-old adult male Sprague-Dawley rats (weight, 400-500 gm) were purchased (Charles Laboratory, Cambridge, Mass.).
as §5
After induction of general anesthesia using ketamine (60 mg/kg) and xylazine (5 mg/kg), hair over the knee was removed with a clipper. Right and left knee regions were prepared with 70% alcohol and 1% Betadine solution. A one centimeter longitudinal skin incision was made over the anterior aspect of the distal femur. […]
as §2

[6] = system: rodent osteolysis model (UHMWPE wear debris, femur); experiment: First in vivo study: pull-out strength testing of titanium pins; parameters: species or system rat; conditions: 24 weeks
Source text: as §3, §4
Incorporation of the implants by the host bone was evaluated by “pull-out strength testing” of the titanium pins (left femurs) (MTS 858 Bionix, MTS Systems Corporation, Minneapolis, Minn.). Such “pull-out strength testing” measures the amount of force (i.e., pull force) that must be applied to displace (or remove) the implant from the bone.

MC3T3 cells = experiment: Cytokine gene expression after A23187 treatment (Quantitative-RT PCR); format: cell-based; conditions: 1 to 6 hours after stimulation, relative to controls
Procedure: Wear particles and calcium signaling induce cytokine expression in macrophages and osteoblasts. Cytokine gene expression was measured following A23187 treatment in MC3T3 cells by Quantitative-RT PCR. RNA was isolated from the cells using an RNeasy Mini Kit (Qiagen, Valencia, Calif.), and Quantitative-RT PCR was performed using a SYBR Green master mix (Roche, Ind.).

[7] = HA-coated titanium nail soaked in 50 μM zoledronate, left femora, times pooled, p<0.0001 vs control

Molecule	amount of bone mass in the periprosthetic area (micro-CT) [1] [mm^2]	apoptosis in RAW cells [2] [%]	osteolysis around plastic implants (micro-CT) ([3]; HA-coated plastic pins presoaked in zoledronate 15 minutes, right femur)	osteolysis around titanium implant (Faxitron radiographs) ([3]; HA-coated titanium pins presoaked in zoledronate 15 minutes, left femur)	increase in total energy to pull-out over control ([4]; 6-month group) [%]	increase in total energy to pull-out over control ([4]; 6-weeks group) [%]	average peak pullout force [4, 7] [N]	energy required to completely pull the pin out of the bone [4, 7] [N-mm]	bone mineral content (DXA) ([5]; p<0.0001 vs control) [g]	bone mineral density (DXA) ([5]; p<0.0001 vs control) [g/cm^2]	bone area (DXA) ([5]; p=0.1222 vs control)	peak force to extract the titanium pin implants ([6]; zoledronate-treated HA-coated titanium pins vs control, p<0.0001)	pullout energy ([6]; zoledronate-treated HA-coated titanium pins, p=0.0085 vs control) [N-m]	COX-2 expression (MC3T3 cells)	TNF-alpha expression (MC3T3 cells)
zoledronate	2.388±0.960	100	not around such implants in the test rats	not around the titanium implants in the test rats	170.7	542.8	241.0±95.1	521.6±293.8	0.417 ± 0.064	0.328±0.036	1.265±0.081	statistically higher	5.71±3.42	–	–
CNc1ccc2oc(C[C@H]3O[C@@]4(CC[C@H]3C)O[C@H]([C@H](C)C(=O)c3ccc[nH]3)[C@H](C)C[C@H]4C)nc2c1C(=O)O [A23187]	–	–	–	–	–	–	–	–	–	–	–	–	–	increase	increase
